According to ChEMBL document CHEMBL1201862, “PubChem BioAssay data set” (2004):
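Cultured in 96-well plates, cells were exposed to test compound for 48 hours across five concentrations. At the GI50, growth is halved.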 Calls of active or inactive are those of the source. No stated cut-off is given here; in the data, active = GI50 up to about 1.1 µM and inactive = higher.

Tests used:
Assay in all cases: growth of human tumour cells (NCI), 48 h
[1] = system: M19-MEL
[2] = system: MDA-N
[3] = system: SNB-78
[4] = system: XF498
[5] = system: DMS-114
[6] = system: HOP-18
[7] = system: LXFL 529
[8] = system: T47D
[9] = system: RXF 631

Measured: GI50

CCCCCCCCCCCC(=O)OC[C@H](C[As](=O)(O)O)OC(=O)CCCCCCCCCCC
inactive: [1] 8.18 µM | [2] 4.34 µM | [3] 2.94 µM | [4] 10.1 µM | [5] 1.95 µM | [6] 7.29 µM | [7] 3.82 µM | [8] 15.3 µM

O=C(Nc1ccccc1)C(=O)C(C(=O)c1ccccc1F)C1OC(=O)c2ccccc21 (stereo not given)
inactive: [1] 30.1 µM | [3] > 100 µM | [4] 20.7 µM | [9] 31.2 µM | [5] 20.9 µM | [7] 23.6 µM

Cc1cc(N(CCC#N)CCC#N)ccc1/N=N/c1cccc(C(=O)O)c1
inactive: [1] > 100 µM | [3] > 100 µM | [4] 52.4 µM | [9] > 100 µM | [5] > 100 µM | [6] > 100 µM | [7] > 100 µM

CCOC(=O)CC(=O)ON(C)C(=O)Cc1ccccc1
inactive: [1] > 100 µM | [3] > 100 µM | [9] > 100 µM | [5] > 100 µM | [7] > 100 µM

C[P+](C)(C)c1ccccc1
inactive: [1] > 100 µM | [4] > 100 µM | [9] > 100 µM | [5] > 100 µM | [6] > 100 µM | [7] > 100 µM

CCOC(=O)[C@H]1Nc2ccc(Cl)cc2[C@H]2OCC[C@@H]12
inactive: [1] > 100 µM | [3] > 100 µM | [4] > 100 µM | [9] > 100 µM | [5] > 100 µM | [6] > 100 µM | [7] > 100 µM

COC(=O)C(Cc1nc2ccccc2nc1O)C(=O)C(=O)Nc1ccc(F)cc1 (stereo not given)
inactive: [1] 46.7 µM | [4] 54 µM | [9] 32.7 µM | [5] 22.9 µM | [6] > 100 µM | [7] 15.7 µM
